{"source": "patent US12144791B2", "about": "“KRAS agonists, pharmaceutical compositions, and uses in managing cancer” (Emory University, priority 2019, dated 2024)", "key": {"[1]": {"assay": "Single-dose maximum tolerated dose (MTD)", "format": "in vivo", "description": "To define the appropriate doses of KRA-533 for in vivo experimentation, standard single-dose maximum tolerated dose (MTD) was determined. Nu/Nu nude mice were treated with a single dose of 150, 300 or 400 mg/kg i.p., followed by toxicity observations. […] Based on these findings, mice might die mainly from liver and kidney damage at a single 400 mg/kg dose. Thus, the single dose MTD of KRA-533 ranges from 300 to 400 mg/kg. One tenth of single-dose MTD was contemplated (˜30-40 mg/kg) for continuous treatment, e.g., between 10 and 30 mg/kg/day."}, "[2]": {"target": "KRAS WT (Homo sapiens, UniProt P01116)", "assay": "Thermal shift assay, purified KRAS WT", "format": "binding", "conditions": "increasing concentrations", "description": "(§1) Melting temperature (Tm) values of DMSO Ctrl and 15 μM of KRA-533 are shown.\n(§2) Melting temperature (Tm) values of DMSO control and 15 μM KRA-533 are shown.\n(§3) To test whether KRA-533 directly binds to KRAS, a thermal shift assay was employed. […] To further assess whether KRA-533 activates KRAS directly, an in vitro cell-free GDP-GTP exchange experiment was carried out. Purified WT, G12C, G12D or G13D mutant KRAS proteins were incubated with purified GEF (RASGRP1) and GAP (RASA1) proteins in reaction buffer containing [γ-35S]-GTP in the absence or presence of increasing concentrations of KRA-533 at 25° C. for 60 min. KRAS activity was quantified by liquid scintillation counting. […] These findings indicate that KRA-533 not only activates WT KRAS but also has the capacity to further enhance KRAS activity of mutant KRAS.\n(§4) To further test this intracellularly, GFP-tagged WT, S17A, K117A and AA KRAS mutants were exogenously transfected into A549 cells. […] Activities of exogenous GFP-tagged WT and KRAS mutants were analyzed by Western blot using GFP antibody."}, "[3]": {"target": "T1, KRAS S17A (Homo sapiens, UniProt P01116, S17A)", "T1 construct": "made in house", "assay": "Thermal shift assay, purified KRAS S17A", "format": "binding", "description": "as §2, §4"}, "[4]": {"system": "A549 cells", "assay": "Apoptotic and autophagic cell death after KRAS shRNA knockdown", "format": "cell-based, human", "conditions": "G12S mutant KRAS depleted by KRAS shRNA; 15 μM, 48 h", "description": "To further test whether KRAS is a required target for KRA-533 to induce apoptotic and autophagic cell death, G12S mutant KRAS was depleted using KRAS shRNA from A549 cells, followed by treatment with KRA-533 (15 μM) for 48 h."}, "[5]": {"target": "KRAS G13D (Homo sapiens, UniProt P01116, G13D)", "assay": "In vitro cell-free GDP-GTP exchange, KRAS G13D", "format": "biochemical", "conditions": "with GEF (RASGRP1) and GAP (RASA1), 25° C., 60 min", "description": "(§5) GTPγS, purified GFP (RASGRP1, 180 nM) and GAP (RASA1, 180 nM) at 25° C. in the presence or absence of increasing concentrations of KRA-533.\nas §3"}, "[6]": {"system": "A549 and H157 cells", "assay": "Western blot of autophagy marker p62 with or without chloroquine", "format": "cell-based, human", "conditions": "48 h", "description": "To assess whether the autophagy inhibitor regulates KRA-533-induced autophagy formation, A549 and H157 cells were treated with KRA-533 in the absence or presence of autophagy inhibitor chloroquine for 48 h, followed by Western blot analysis of the autophagy marker p62."}, "[7]": {"system": "lung tumors of LSL-KRASG12D LKB1fl/fl (KL) mice", "assay": "Genetically engineered LSL-KRASG12D LKB1fl/fl (KL) mouse model", "format": "in vivo", "description": "After administration of adenovirus Cre recombinase in KL mice for 6 weeks, mice were treated with KRA-533 (20 mg/kg/d) for 8 weeks (n=6 each group). Survival of mice was calculated up to 8 weeks before euthanization in the control group versus the KRA-533 treatment group.\nIt is reported that the co-occurrence of KRAS and LKB1(STK11) mutations could label a more aggressive molecular subtype of NSCLC. Around half of KRAS-mutant lung cancer patients also carry LKB1 mutations, therefore, it will be important to test whether KRA-533 is also effective for the treatment of KRAS-mutant lung cancers with mutation or loss. LSL-KRASG12D LKB1fl/fl (KL) mice were generated by intercrossing B6.129S4-Krastm3Tyj/J (KRASG12D) and FVB; 129S6-Stk11tm1Rdp/Nci (LKB1) strains two generations and genotyped to confirm homozygosity for the LKB1 allele. These mice contain a KRASG12D LSL knock-in allele and a floxed allele of LKB1 (LKB1fl/fl). KRA-533 (20 mg/kg/d) or vehicle control was administered i.p. starting at 6 weeks post AdeCre delivery. After treatment for 8 weeks, mice were euthanized, and lung tumors were analyzed as described above."}, "[8]": {"target": "WT KRAS (Homo sapiens, UniProt P01116)", "assay": "In vitro cell-free GDP-GTP exchange, WT KRAS", "format": "biochemical", "conditions": "with GEF (RASGRP1) and GAP (RASA1), 25° C., 60 min", "description": "as §5\nGTPγS, purified GFP (RASGRP1, 180 nM) and GAP (RASA1, 180 nM) at 25° C. in the presence or absence of 15 μM KRA-533. The radioactivity remaining on the protein after intensive washing was quantified by liquid scintillation.\nas §3, §4"}, "[9]": {"target": "KRAS G12D (Homo sapiens, UniProt P01116, G12D)", "assay": "Thermal shift assay, purified KRAS G12D", "format": "binding", "conditions": "increasing concentrations", "description": "as §1, §3"}}, "note": "Entries after “also recorded” stand apart in the source; their conditions may differ."}
{"smiles": "O=C(CBr)NCCCCc1ccc(C(=O)O)cc1", "note": "[KRA-533, 4-(4-(2-bromoacetamido)butyl)benzoic acid]", "values": [{"measurement": "MTD", "setting": "[1]; mouse, in vivo, ip, Nu/Nu nude mice", "value": "300 to 400", "unit": "mg/kg"}, {"measurement": "Alanine transaminase (ALT)", "setting": "[1]; single dose of 400 mg/kg", "value": "significantly elevated"}, {"measurement": "aspartate transaminase (AST)", "setting": "[1]; single dose of 400 mg/kg", "value": "significantly elevated"}, {"measurement": "blood urea nitrogen (BUN)", "setting": "[1]; single dose of 400 mg/kg", "value": "significantly elevated"}, {"measurement": "death of mice (time)", "setting": "[1]; single dose of 400 mg/kg", "value": 8, "unit": "days"}, {"measurement": "weight loss or other toxicities (hematologic, liver and kidney function)", "setting": "[1]; single dose of 150 or 300 mg/kg i.p.", "value": "did not cause weight loss or other toxicities"}, {"measurement": "melting temperature (Tm) / binding, KRAS WT", "setting": "[2]", "value": "Dose dependent increases in melting temperature (Tm); also recorded: could bind"}, {"measurement": "binding (thermal shift), KRAS S17A", "setting": "[3]", "value": "could bind"}, {"measurement": "cell sensitivity to apoptotic and autophagic cell death after knockdown of mutant KRAS", "setting": "[4]", "value": "significantly reduced cell sensitivity to the induction of apoptotic and autophagic cell death"}, {"measurement": "KRAS activity (liquid scintillation), KRAS G13D", "setting": "[5]", "value": "further enhanced the activities of active KRAS mutants"}, {"measurement": "autophagy marker p62, KRA-533 alone", "setting": "[6]", "value": "induced autophagy with deceased p62 level via degradation"}, {"measurement": "tumor growth", "setting": "[7]; 20 mg/kg/d i.p. from 6 weeks post AdeCre, 8 weeks", "value": "significantly suppressed tumor growth"}, {"measurement": "survival", "setting": "[7]; 20 mg/kg/d i.p., up to 8 weeks", "value": "prolonged survival"}, {"measurement": "KRAS activity (liquid scintillation), WT KRAS", "setting": "[8]", "value": "activated WT KRAS to increase its activity in a dose-dependent manner; also recorded: directly activated"}, {"measurement": "melting temperature (Tm) / binding, KRAS G12D", "setting": "[9]", "value": "Dose dependent increases in melting temperature (Tm)"}]}
